# Assay results published in US9914750B2, “Synthetic peptides and peptide mimetics” (University of Louisville Research Foundation, priority 2007, dated 2018).
# “Also recorded” adds a separate entry of the source. Like-named read-outs stand apart in the source and are kept apart here. No end group written: not given here.
# Legend:
# [1] = tested on: LPS-binding protein (LBP); experiment: Inhibition of LPS binding to LPS-binding protein (ELISA)
# Description: Analysis of the PSP sequence indicated three possible regions of biological activity. Initially, three peptides corresponding to the PSP sequence in these regions were designed and used in these studies. The initial step in the inflammatory cascade is the binding of LPS to LPS-binding protein. This binding was inhibited by preincubation of LPS with each of the three peptides. […] The binding of LPS to LPB was analyzed to ELISA. 0% inhibition (100% binding) was determined in the absence of inhibitors while 100% inhibition was determined in the presence of the inhibitor polymyxin B. The inhibition of each peptide is determined relative to the effect of polymyxin B.
# sheep red blood cells = experiment: Hemagglutination assay; format: cell-based; details: PBS, absence of serum, 2 h
# Description: FIG. 22: Hemagglutination of sheep red blood cells. RBCs were washed in PBS and incubated for 2 h in microtiter plates in PBS±5% fetal calf serum. Peptide concentrations were 83 μg/ml. The microtiter plate was imaged. Agglutinated red blood cells form a wide mat of cells, while non-agglutinated cells form a button shaped pellet.
# Briefly, unmodified sheep erythrocytes (Cappel, M P Biomedicals, Irvine, Calif.) were washed in PBS and suspended at 1% in PBS. Diluted erythrocytes and 20 μg/ml of each peptide in PBS were mixed in polypropylene microtiter plates (120 μl per well) and incubated for 2 h at 35° C. The plates were imaged on a Kodak Image station.
# [2] = tested on: RAW 264.7 macrophage cells; experiment: LPS-induced TNFα secretion (ELISA); format: cell-based, mouse; details: P. aeruginosa LPS
# Description: (§1) FIGS. 15A and 15B. FIG. 15A. Inhibition of endotoxin-stimulated TNFα secretion. RAW 264.7 macrophage cells were stimulated with 100 ng/ml LPS in the presence or absence of the PSP-derived peptides GK7, KL11 or GL13 (200 μg/ml). Polymyxin B (PMX) was used as a positive control. Further controls consisted of peptides alone without LPS stimulation. TNFα secretion was analyzed by ELISA of the RAW culture medium. The data are from triplicate RAW culture dishes for each condition. *) different from LPS alone P<0.03, **) P<0.0002. FIG. 15B. Dose response curve for the inhibition of LPS-induced TNFα secretion by GL-13.
# In the present experiments, the redesigned PSP peptides (GL13, KL11) were tested for their effect on TNFα secretion and compared to GK7.
# RAW 264.7 cells = experiment: Assay for inflammation: TNFα secretion with peptides alone (ELISA); format: cell-based, mouse
# Description: as §1
# To determine if the PSP peptides cause an inflammatory response in RAW 264.7 cells, the cells were incubated with each peptide for 24 h and TNFα secretion was quantitated by ELISA.
# The vaccine adjuvant monophosphoryl lipid A (MPLA) a low-toxicity derivative of LPS was used to stimulate RAW cells in the presence or absence of PSP peptides (200 μg/ml) or the anti-inflammatory peptide polymyxin B (PMX). Control samples were incubated with the peptides alone.
# [3] = tested on: P. aeruginosa with RAW 264.7 macrophage cells; experiment: Gentamicin protection assay (phagocytosis / clearance by macrophages); format: cell-based, mouse; details: 100 μg/ml peptide
# Description: FIG. 13. Phagocytosis of P. aeruginosa: Bacteria (5×10^8 CFU/ml) were incubated with buffer (Blk), GK-7 or GL-13 (100 μg/ml) for 1 h and added to RAW cells for 2 h. The RAW cells were washed and incubated with […] for 90 min. The cells were lysed in 1% Tween-20 and the diluted contents plated on agar. CFU were enumerated and expressed relative to the mean of the blank in each of three experiments (N=9) *) P=0.025.
# Overnight cultures of P. aeruginosa were diluted 1:5 in PBS and incubated for 1 h at room temperature with PSP peptides (100 μg/ml) or with an equivalent amount of 0.01% acetic acid. Aliquots (500 μl) of these samples were added to RAW 264.7 macrophage cells cultured in 24-well plates and incubated for 2 h at 37° C., 5% CO2. The cells were washed in DMEM and then incubated with DMEM containing 200 μg/ml Gentamicin for 90 min at 37° C., 5% CO2. The cells were again washed with DMEM and the incubated with 200 μl/well of PBS containing 1% Tween 20 for 5 min at room temperature. The cell extracts were diluted in LB and plated on LB agar plates. CFU were enumerated after overnight incubation at 37° C.
# P. aeruginosa = experiment: Antibacterial activity in vivo, Romaine lettuce infection model; parameters: species or system Pseudomonas aeruginosa; details: 200 μg/ml peptide injected with bacteria, scored after 2-3 days
# Description: FIG. 4: Antibacterial activity in vivo. Romaine lettuce leaves were injected with P. aeruginosa (10^8 cells/nil) in the presence or absence of 200 μg/ml of antibacterial peptides. After 2-3 days incubation the injection sites were scored for infection on a scale of 0-100% relative to the no-bacteria (0% infection) and bacteria-only controls (PAO1) (100%). Data are from six independent experiments and are shown as mean±SEM, N=4−12. *) P<0.04, **) P<0.003.
# Romaine lettuce heads were purchased from local grocery stores. Outer leaves were removed and undamaged leaves were selected. The leaves were rinsed in 0.1% bleach and incubated in plastic containers on filter paper moistened with 10 mM MgSO4. Overnight cultures of P. aeruginosa were diluted to 10^8 CFU/ml in 10 mM MgSO4 and supplemented with 200 μg/ml of each peptide. Ten μl (10^6 CFU, 2 μg peptide) were injected into the midrib of each leaf using a micro pipetter. Blank controls were incubated with buffer only, and bacterial controls were incubated without peptide. The plastic trays were covered and incubated at 35° C. Leaves were inspected daily for browning around the injection site or along the midrib. Generally rotting or moldy leaves were discarded. Infection was scored on a scale from 0% to 100% relative to blank controls and bacterial controls, respectively.
# P. aeruginosa PAO1 = experiment: Biofilm formation / bacterial adhesion assay, PVC microtiter plates, crystal violet; format: cell-based, Pseudomonas aeruginosa; details: 50 μg/ml, 6 h
# Description: FIGS. 7A and 7B: PSP-peptides inhibit biofilm formation. P. aeruginosa PAO1 (overnight cultures, diluted 1:100 were incubated with 50 μg/ml of each peptide (LL37, GK7, GL13, KL11) or lysozyme for 6 h under aerobic (FIG. 7A) or reduced oxygen (anaerobic) (FIG. 7B) conditions. The OD 570 (growth) was determined and the attached cells were then quantitated by staining with crystal violet (biofilm). Growth and biofilm values were normalized against the mean of samples without peptides (HOAc) and expressed as mean±SEM. The data in panel A are from three independent experiments, N=22−24. The data in panel B are from two independent experiments, N=16. Lysozyme (Lyz) data are from a single experiment, N=8. *) different from Growth, P<0.002
# (§2) Overnight cultures of P. aeruginosa PAO1 were diluted 1:100 in MHB and 100 μl/well were incubated with 5 μl of LL-37, GK-7, GL-13, KL-11 or lysozyme (1 mg/ml) in PVC microtiter plates. The plates were incubated for 6 h at 32° C. under aerobic or reduced oxygen conditions. Bacterial growth was quantitated spectrophotometrically at 570 nm. Twenty-five μl of 1% crystal violet in dH2O was added to each well and incubated 20 min at room temperature. The wells were emptied and washed three times in dH2O and then incubated for 30 min with 200 μl of 95% ethanol. The OD at 570 nm was determined as a measure of biofilm formation. Growth and biofilm values were normalized against the mean of samples incubated with 0.01% acetic acid without peptides.
# as §2, with “μl of the bacterial suspension was mixed” for “μl/well were incubated”, “50 μg/ml” for “5 μl”, “lysozyme” for “lysozyme (1 mg/ml)”
# [4] = tested on: P. aeruginosa PAO1 on MDCK cell monolayers; experiment: Epithelial invasion assay, MDCK monolayer penetration; format: cell-based, Pseudomonas aeruginosa; details: 24 h
# Description: FIG. 10. MDCK monolayer penetration: MDCK cells were cultured on filter supports and infected on the apical side with 10^6 CFU/ml of P. aeruginosa PAO1 (PAO1) or bacteria mixed with PSP peptides, as indicated. Control MDCK cells were incubated with buffer alone (HOAc). After 24 h incubation at 37° C., the OD 600 nm was determined for the media in the basolateral compartment to detect bacterial penetration of the MDCK cell monolayer.
# To determine if PSP peptides prevent the penetration of epithelial cell monolayers, the epithelial cell line MDCK was cultured on permeable membrane filters. P. aeruginosa were added to the apical medium of confluent MDCK cell monolayers and bacterial penetration was determined as the number of bacteria recovered from the basolateral medium after a 24 h incubation.
# [5] = tested on: Aggregatibacter (Actinobacillus) actinomycetemcomitans JP2; format: cell-based; details: 4 h, reduced oxygen
# Description: The PSP peptides GL13, GK7 and KL11, lysozyme, LL37 or no peptide (BLK) were incubated with P. aeruginosa (FIG. 3A) or A. actinomycetemcomitans (FIG. 3B). P. aeruginosa PAO1 (10^5 cells/ml) were incubated for 2 h at 35° C. with 10 μg/ml (open bars) or 100 μg/ml (shaded bars) of each peptide. A. actinomycetemcomitans JP2 (10^5 cells/nil) were incubated for 4 h at 37° C. under reduced oxygen conditions. Bacterial cultures were diluted and plated on LB agar (Pseudomonas) or BHI agar plates (A.a., low oxygen incubation) and surviving CFUs enumerated. The data are shown as mean±SEM, P. aeruginosa: N=8−22 at 100 μg/ml, N=2−10 at 10 μg/ml. A. actinomycetemcomitans: N=3. *) P<0.0001, **) P<0.004, ***) P<0.02
# Overnight cultures of bacteria were pelleted and resuspended in 10 mM sodium phosphate, pH 7.4 (10^5 CFU/ml). Diluted bacteria (100 μl) were incubated with 10 or 100 μg/ml of each peptide in 10 mM sodium phosphate, pH 7.4. P aeruginosa PAO1 were incubated for 2 h at 35° C. while A. actinomycetemcomitans JP2 were incubated for 4 h at 37° C. under reduced oxygen conditions. […]
# As a second antibacterial assay, bactericidal activity was determined by incubating the peptides (10 or 100 μg/ml) with P. aeruginosa, A. actinomycetemcomitans or S. gordonii in 10 mM phosphate buffer. […]
Substance,effect on LPS binding to LBP [1],hemagglutination (words) (sheep red blood cells),inhibition of LPS-induced TNFα secretion [2],TNFα secretion with peptide alone (RAW 264.7 cells; no LPS stimulation),bacterial clearance / phagocytosis [3],infection of lettuce leaves (P. aeruginosa),bacterial growth in biofilm/adhesion assay (P. aeruginosa PAO1; aerobic),biofilm formation / adhesion (P. aeruginosa PAO1; aerobic),TNFα secretion with peptide alone (RAW 264.7 cells),penetration / invasion of MDCK cell monolayers by P. aeruginosa [4],survival of A. actinomycetemcomitans [5] [%],inhibition of biofilm formation (adhesion) (P. aeruginosa PAO1; aerobic) [%],biofilm formation (P. aeruginosa PAO1; reduced oxygen conditions)
polymyxin B [reference compound],Strong inhibition,did not cause hemagglutination,about 50%,"exhibited toxicity to RAW cells, as evidenced by increased TNFα release",,,,,,,,,
"GQIINLK [GK7, GQIINLK]",,did not cause hemagglutination,,,had no effect on clearance,neither GK-7 nor LL37 showed a significant effect on infection,affected neither growth nor adhesion,affected neither growth nor adhesion,small increase in TNFα secretion,,,,
"KLLNNVISKLL [KL11, KLLNNVISKLL]",,did not cause hemagglutination,,,,significantly reduced the infection; also recorded: significantly inhibit P. aeruginosa infection,only a small (non-significant) reduction of bacterial growth,,,could inhibit the penetration,40,40,reduced biofilm formation under low oxygen conditions
